One test deals with EGFR Del19/T790M/C797S (Homo sapiens, UniProt P00533, C797S/DEL746-750/T790M). Put plainly: Biochemical EGFR kinase inhibition assay (Lance Ultra TR-FRET), triple mutant del19/T790M/C797S. The gist of the method:
(§1)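 Step 1: compound in kinase buffer, 0.003–10 μM. Step 2: kinase reaction 1 h at room temperature. Step 4: TR-FRET read at 615/665 nm; IC50 calculated.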

The next test deals with EGFR L858R/T790M/C797S (Homo sapiens, UniProt P00533, C797S/L858R/T790M). Put plainly: Biochemical EGFR kinase inhibition assay (Lance Ultra TR-FRET), triple mutant L858R/T790M/C797S. The gist of the method:
as §1

The target of the next test is EGFR Del19/C797S (Homo sapiens, UniProt P00533, C797S/DEL746-750). Put plainly: Biochemical EGFR kinase inhibition assay (Lance Ultra TR-FRET), double mutant del19/C797S. The method, boiled down: as §1
Another test addresses EGFR L858R/C797S (Homo sapiens, UniProt P00533, C797S/L858R). The test can be described thus: Biochemical EGFR kinase inhibition assay (Lance Ultra TR-FRET), double mutant L858R/C797S. The method, boiled down: as §1
The target in the next test is EGFR wildtype (WT) (Homo sapiens, UniProt P00533). Put plainly: Biochemical EGFR kinase inhibition assay (Lance Ultra TR-FRET), wildtype. The method, boiled down:
as §1

[1] abbreviates: IC50 Del19/T790M/C797S (nM), 100 μM ATP.
Where [2] appears, read: Km ATP, read-out: IC50 Del19/T790M/C797S (nM) Km ATP.
[3] abbreviates: IC50 L858R/T790M/C797S (nM), 100 μM ATP.
[4] abbreviates: Km ATP, read-out: IC50 L858R/T790M/C797S (nM) Km ATP.
Where [5] appears, read: IC50 Del19/C797S (nM), 100 μM ATP.
Setting [6] is: Km ATP, read-out: IC50 Del19/C797S (nM) Km ATP.
Where [7] appears, read: IC50 L858R/C797S (nM), 100 μM ATP.
The mark [8] stands for this setting: Km ATP, read-out: IC50 L858R/C797S (nM) Km ATP.
[9] abbreviates: Km ATP, read-out: IC50 WT (nM) Km ATP.
Where [10] appears, read: Km ATP, read-out: IC50 Del19/T790M/C797S (nM), Km ATP.
[11] abbreviates: Km ATP, read-out: IC50 L858R/T790M/C797S (nM), Km ATP.
Setting [12] is: Km ATP, read-out: IC50 Del19/C797S (nM), Km ATP.
Where [13] appears, read: Km ATP, read-out: IC50 L858R/C797S (nM), Km ATP.
[14] abbreviates: Km ATP, read-out: IC50 WT (nM), Km ATP.

Read-outs that look alike come from different tables or passages of the source. A value given as a limit tells only on which side of the number the result lay.

Chain of EGFR Del19/C797S (P00533 with tags, fused parts or gaps DEL746-750/C797S): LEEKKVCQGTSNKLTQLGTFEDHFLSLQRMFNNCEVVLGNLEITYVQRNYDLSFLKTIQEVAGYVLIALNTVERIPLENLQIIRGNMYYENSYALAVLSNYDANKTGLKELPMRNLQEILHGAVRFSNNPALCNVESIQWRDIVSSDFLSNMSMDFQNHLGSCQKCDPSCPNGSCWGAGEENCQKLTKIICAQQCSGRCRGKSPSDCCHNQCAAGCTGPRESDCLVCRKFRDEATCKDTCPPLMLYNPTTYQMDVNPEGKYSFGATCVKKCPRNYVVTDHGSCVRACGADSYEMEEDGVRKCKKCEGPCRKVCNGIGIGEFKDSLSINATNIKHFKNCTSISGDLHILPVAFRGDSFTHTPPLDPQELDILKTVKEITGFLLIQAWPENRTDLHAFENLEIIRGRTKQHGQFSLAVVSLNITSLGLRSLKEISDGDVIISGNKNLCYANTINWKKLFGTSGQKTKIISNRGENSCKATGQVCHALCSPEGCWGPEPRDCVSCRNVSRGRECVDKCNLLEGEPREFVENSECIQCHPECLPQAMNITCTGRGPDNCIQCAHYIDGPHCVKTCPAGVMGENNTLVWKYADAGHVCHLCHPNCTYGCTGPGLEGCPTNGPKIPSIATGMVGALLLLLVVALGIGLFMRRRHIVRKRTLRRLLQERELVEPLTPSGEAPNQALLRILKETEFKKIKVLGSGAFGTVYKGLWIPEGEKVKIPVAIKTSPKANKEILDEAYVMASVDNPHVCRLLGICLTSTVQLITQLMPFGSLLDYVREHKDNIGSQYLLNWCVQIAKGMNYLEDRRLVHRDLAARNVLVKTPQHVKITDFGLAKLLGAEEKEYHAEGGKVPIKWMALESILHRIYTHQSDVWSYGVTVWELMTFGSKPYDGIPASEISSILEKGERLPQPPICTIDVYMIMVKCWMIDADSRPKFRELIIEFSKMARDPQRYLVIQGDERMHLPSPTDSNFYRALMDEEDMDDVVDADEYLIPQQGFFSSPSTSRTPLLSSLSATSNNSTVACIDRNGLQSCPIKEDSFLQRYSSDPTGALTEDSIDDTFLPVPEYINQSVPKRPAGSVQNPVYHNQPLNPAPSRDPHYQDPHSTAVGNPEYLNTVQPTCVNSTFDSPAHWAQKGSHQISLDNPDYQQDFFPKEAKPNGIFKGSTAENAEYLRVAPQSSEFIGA
Chain of EGFR wildtype (WT) (P00533 25-1210): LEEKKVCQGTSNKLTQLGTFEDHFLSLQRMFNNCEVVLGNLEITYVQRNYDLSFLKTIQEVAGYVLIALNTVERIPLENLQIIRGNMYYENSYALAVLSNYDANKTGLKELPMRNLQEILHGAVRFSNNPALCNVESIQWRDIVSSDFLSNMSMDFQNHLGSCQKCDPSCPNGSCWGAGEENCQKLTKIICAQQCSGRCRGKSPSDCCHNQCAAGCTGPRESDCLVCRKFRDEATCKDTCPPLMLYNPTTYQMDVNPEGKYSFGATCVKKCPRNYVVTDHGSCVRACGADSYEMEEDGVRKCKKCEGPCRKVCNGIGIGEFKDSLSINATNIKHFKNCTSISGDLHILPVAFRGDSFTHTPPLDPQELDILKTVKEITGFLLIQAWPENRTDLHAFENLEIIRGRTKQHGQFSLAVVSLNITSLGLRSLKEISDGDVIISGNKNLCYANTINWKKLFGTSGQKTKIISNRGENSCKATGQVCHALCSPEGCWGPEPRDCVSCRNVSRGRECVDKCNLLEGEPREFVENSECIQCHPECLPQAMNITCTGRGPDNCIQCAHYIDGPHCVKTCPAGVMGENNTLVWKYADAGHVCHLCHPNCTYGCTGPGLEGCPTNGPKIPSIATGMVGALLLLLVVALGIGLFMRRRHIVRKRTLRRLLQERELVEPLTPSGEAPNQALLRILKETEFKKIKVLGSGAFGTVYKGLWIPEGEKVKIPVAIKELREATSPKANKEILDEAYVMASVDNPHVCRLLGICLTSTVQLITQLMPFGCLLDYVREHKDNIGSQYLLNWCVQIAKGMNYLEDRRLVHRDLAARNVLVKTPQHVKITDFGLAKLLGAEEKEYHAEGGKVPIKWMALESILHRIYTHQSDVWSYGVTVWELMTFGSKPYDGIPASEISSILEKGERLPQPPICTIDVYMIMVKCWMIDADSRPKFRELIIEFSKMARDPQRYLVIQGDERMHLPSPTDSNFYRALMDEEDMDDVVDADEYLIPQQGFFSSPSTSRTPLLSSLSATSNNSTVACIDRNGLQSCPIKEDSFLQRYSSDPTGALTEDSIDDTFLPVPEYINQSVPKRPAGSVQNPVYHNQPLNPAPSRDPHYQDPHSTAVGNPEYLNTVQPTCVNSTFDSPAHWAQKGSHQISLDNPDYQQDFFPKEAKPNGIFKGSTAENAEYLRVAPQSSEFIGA
Chain of EGFR L858R/C797S (P00533 25-1210 C797S/L858R): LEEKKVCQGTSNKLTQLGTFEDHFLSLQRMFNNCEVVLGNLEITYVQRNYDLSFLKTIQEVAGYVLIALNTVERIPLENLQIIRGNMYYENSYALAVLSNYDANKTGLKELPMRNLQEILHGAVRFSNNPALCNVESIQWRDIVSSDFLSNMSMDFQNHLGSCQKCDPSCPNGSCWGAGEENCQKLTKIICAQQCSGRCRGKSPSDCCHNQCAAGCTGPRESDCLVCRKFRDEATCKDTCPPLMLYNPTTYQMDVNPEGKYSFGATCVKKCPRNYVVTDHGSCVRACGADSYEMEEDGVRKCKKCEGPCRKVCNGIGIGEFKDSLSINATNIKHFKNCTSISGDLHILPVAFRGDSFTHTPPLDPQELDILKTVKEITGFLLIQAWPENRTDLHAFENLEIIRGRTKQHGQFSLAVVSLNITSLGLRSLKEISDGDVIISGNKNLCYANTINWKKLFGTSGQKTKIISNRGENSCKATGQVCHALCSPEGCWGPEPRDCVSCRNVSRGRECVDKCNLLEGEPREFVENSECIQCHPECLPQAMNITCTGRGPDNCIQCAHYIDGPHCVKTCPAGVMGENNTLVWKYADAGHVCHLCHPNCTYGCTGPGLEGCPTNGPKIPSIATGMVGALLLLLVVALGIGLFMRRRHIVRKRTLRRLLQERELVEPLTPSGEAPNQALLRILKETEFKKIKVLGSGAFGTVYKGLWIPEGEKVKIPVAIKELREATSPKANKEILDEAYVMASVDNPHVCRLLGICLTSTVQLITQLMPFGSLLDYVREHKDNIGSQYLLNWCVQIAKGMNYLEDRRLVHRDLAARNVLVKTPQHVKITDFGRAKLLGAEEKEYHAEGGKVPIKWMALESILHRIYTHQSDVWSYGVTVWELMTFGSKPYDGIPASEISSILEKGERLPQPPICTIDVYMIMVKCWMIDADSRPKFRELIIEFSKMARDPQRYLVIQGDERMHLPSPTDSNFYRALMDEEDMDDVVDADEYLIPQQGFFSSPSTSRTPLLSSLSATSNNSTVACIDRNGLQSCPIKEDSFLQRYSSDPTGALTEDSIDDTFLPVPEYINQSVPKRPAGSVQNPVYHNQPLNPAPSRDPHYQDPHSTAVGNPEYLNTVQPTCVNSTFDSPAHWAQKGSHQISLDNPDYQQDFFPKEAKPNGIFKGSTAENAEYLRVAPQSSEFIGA
Chain of EGFR Del19/T790M/C797S (P00533 with tags, fused parts or gaps DEL746-750/T790M/C797S): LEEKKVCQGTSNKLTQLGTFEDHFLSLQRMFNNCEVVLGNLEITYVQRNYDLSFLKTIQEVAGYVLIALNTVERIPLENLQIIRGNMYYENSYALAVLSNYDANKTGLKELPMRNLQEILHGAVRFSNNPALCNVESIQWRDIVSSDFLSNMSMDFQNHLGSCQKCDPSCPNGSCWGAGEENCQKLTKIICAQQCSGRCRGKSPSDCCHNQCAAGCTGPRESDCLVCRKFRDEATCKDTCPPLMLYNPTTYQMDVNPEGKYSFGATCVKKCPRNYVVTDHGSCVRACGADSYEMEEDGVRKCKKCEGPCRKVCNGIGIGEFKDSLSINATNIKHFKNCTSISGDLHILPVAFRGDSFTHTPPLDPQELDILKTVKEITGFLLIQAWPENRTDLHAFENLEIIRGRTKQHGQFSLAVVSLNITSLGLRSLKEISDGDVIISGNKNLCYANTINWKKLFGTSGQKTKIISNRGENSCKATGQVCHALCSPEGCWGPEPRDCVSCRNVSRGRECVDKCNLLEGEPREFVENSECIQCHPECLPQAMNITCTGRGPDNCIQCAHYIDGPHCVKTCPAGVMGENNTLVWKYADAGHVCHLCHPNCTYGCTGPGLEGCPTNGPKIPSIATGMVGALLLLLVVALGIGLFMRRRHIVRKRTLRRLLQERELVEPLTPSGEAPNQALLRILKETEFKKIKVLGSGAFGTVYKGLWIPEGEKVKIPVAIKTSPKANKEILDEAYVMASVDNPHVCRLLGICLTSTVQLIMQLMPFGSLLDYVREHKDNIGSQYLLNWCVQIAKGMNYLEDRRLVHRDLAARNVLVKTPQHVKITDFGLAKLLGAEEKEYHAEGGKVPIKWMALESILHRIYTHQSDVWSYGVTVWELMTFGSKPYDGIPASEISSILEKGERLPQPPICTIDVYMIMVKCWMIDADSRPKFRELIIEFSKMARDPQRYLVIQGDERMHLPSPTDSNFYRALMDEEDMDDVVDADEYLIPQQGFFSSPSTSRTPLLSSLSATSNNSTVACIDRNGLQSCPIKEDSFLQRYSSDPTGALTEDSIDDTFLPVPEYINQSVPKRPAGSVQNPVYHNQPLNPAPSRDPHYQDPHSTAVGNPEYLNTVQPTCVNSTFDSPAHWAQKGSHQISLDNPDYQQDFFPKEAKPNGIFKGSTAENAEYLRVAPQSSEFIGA

As for `Cn1cc(C#Cc2cnc(Nc3ccnc(-c4cnn(S(=O)(=O)C5CC5)c4)n3)cc2N[C@H]2CC[C@@](C)(O)CC2)cn1` [Example 81, (1s,4s)-4-((2-((2-(1-(Cyclopropylsulfonyl)-1H-pyrazol-4-yl)pyrimidin-4-yl)amino)-5-((1-methyl-1H-pyrazol-4-yl)ethynyl)pyridin-4-yl)amino)-1-methylcyclohexan-1-ol], the IC50 on EGFR Del19/T790M/C797S (setting [1]) turned out to be 0.3 nM; on EGFR Del19/T790M/C797S (setting [2]) it was 0.3 nM; against EGFR L858R/T790M/C797S (setting [3]) it was 0.4 nM; at EGFR L858R/T790M/C797S (setting [4]), 0.2 nM; at EGFR Del19/C797S (setting [5]), 5.8 nM; on EGFR Del19/C797S (setting [6]) it was 7.7 nM. Besides, the IC50 on EGFR L858R/C797S (setting [7]) was 79.1 nM; on EGFR L858R/C797S (setting [8]), 5.3 nM; at EGFR wildtype (WT) (IC50 WT (nM), 100 μM ATP), over 10000 nM; at EGFR wildtype (WT) (setting [9]) it was 61.6 nM.
Take `Cn1cc(C#Cc2cnc(Nc3ccnc(-c4cnn(S(=O)(=O)C5CC5)c4)n3)cc2N[C@H]2CCC[C@@H](O)C2)cn1` [Example 75, (1R,3S)-3-((2-((2-(1-(Cyclopropylsulfonyl)-1H-pyrazol-4-yl)pyrimidin-4-yl)amino)-5-((1-methyl-1H-pyrazol-4-yl)ethynyl)pyridin-4-yl)amino)cyclohexan-1-ol]: the IC50 against EGFR Del19/T790M/C797S (setting [1]) amounted to 1.6 nM; at EGFR Del19/T790M/C797S (setting [2]), 1.8 nM; at EGFR L858R/T790M/C797S (setting [3]), 1.8 nM; at EGFR L858R/T790M/C797S (setting [4]), 0.8 nM; at EGFR Del19/C797S (setting [5]) it was 5.7 nM; at EGFR Del19/C797S (setting [6]) it was 3.8 nM. Further, the IC50 at EGFR L858R/C797S (setting [7]) was 104 nM; at EGFR L858R/C797S (setting [8]), 2.6 nM; on EGFR wildtype (WT) (IC50 WT (nM), 100 μM ATP), over 10000 nM; on EGFR wildtype (WT) (setting [9]) it was 45.6 nM.
As to `O=S(=O)(C1CC1)n1cc(-c2nccc(Nc3cc(N[C@H]4CC[C@@H](NCCF)CC4)c(C#Cc4cnn(CC(F)(F)F)c4)cn3)n2)cn1` [Example 345, N^2-(2-(1-(Cyclopropylsulfonyl)-1H-pyrazol-4-yl)pyrimidin-4-yl)-N^4-((1s,4s)-4-((2-fluoroethyl)amino)cyclohexyl)-5-((1-(2,2,2-trifluoroethyl)-1H-pyrazol-4-yl)ethynyl)pyridine-2,4-diamine], the IC50 came out at 2.7 nM against EGFR Del19/T790M/C797S (setting [1]); 1.5 nM on EGFR Del19/T790M/C797S (setting [10]); 2.2 nM against EGFR L858R/T790M/C797S (setting [3]); 1.3 nM at EGFR L858R/T790M/C797S (setting [11]); 27.6 nM on EGFR Del19/C797S (setting [5]); 11 nM at EGFR Del19/C797S (setting [12]). For the same molecule, the IC50 against EGFR L858R/C797S (setting [7]) is 45.3 nM; at EGFR L858R/C797S (setting [13]) it was 9.3 nM; on EGFR wildtype (WT) (IC50 WT (nM), 100 μM ATP), 7830 nM; at EGFR wildtype (WT) (setting [14]) it was 138 nM.
`CN(C)CC1CCN(c2cc(Nc3ccnc(-c4cnn(S(=O)(=O)C5CC5)c4)n3)ncc2C#Cc2cnn(CC(F)F)c2)CC1` [Example 301, 2-(1-(Cyclopropylsulfonyl)-1H-pyrazol-4-yl)-N-(5-((1-(2,2-difluoroethyl)-1H-pyrazol-4-yl)ethynyl)-4-(4-((dimethylamino)methyl)piperidin-1-yl)pyridin-2-yl)pyrimidin-4-amine]: the IC50 came out at 0.6 nM on EGFR Del19/T790M/C797S (ATP at Km, read-out: IC50 Del19/T790M/C797S (nM), Km ATP); 0.7 nM against EGFR Del19/T790M/C797S (setting [1]); 0.6 nM at EGFR L858R/T790M/C797S (ATP at Km, read-out: IC50 L858R/T790M/C797S (nM), Km ATP); 1.4 nM against EGFR L858R/T790M/C797S (setting [3]); 7.2 nM at EGFR Del19/C797S (ATP at Km, read-out: IC50 Del19/C797S (nM), Km ATP); 4.9 nM against EGFR Del19/C797S (setting [5]). The IC50 is 11.2 nM at EGFR L858R/C797S (ATP at Km, read-out: IC50 L858R/C797S (nM), Km ATP); 138 nM against EGFR L858R/C797S (setting [7]); 22.9 nM at EGFR wildtype (WT) (ATP at Km, read-out: IC50 WT (nM), Km ATP); over 10000 nM against EGFR wildtype (WT) (IC50 WT (nM), 100 μM ATP).
For the molecule `CC1(CO)CCN(c2cc(Nc3ccnc(-c4cnn(S(=O)(=O)C5CC5)c4)n3)ncc2C#CC2CCCO2)CC1` (stereo not shown) [Example 378, (1-(2-((2-(1-(Cyclopropylsulfonyl)-1H-pyrazol-4-yl)pyrimidin-4-yl)amino)-5-((tetrahydrofuran-2-yl)ethynyl)pyridin-4-yl)-4-methylpiperidin-4-yl)methanol], the IC50 against EGFR Del19/T790M/C797S (setting [1]) worked out at 0.3 nM; at EGFR Del19/T790M/C797S (setting [10]), 0.1 nM; at EGFR L858R/T790M/C797S (setting [3]) it was 0.4 nM; on EGFR L858R/T790M/C797S (setting [11]) it was 0.1 nM; against EGFR Del19/C797S (setting [5]), 1 nM; on EGFR Del19/C797S (setting [12]) it was 0.5 nM. Also, the IC50 on EGFR L858R/C797S (setting [7]) stood at 34 nM; on EGFR L858R/C797S (setting [13]) it was 1.3 nM; at EGFR wildtype (WT) (IC50 WT (nM), 100 μM ATP) it was 2900 nM; on EGFR wildtype (WT) (setting [14]), 3.9 nM.
`O=S(=O)(C1CC1)n1cc(-c2nccc(Nc3cc(N4C[C@@H]5[C@@H](CO)[C@@H]5C4)c(C#Cc4cnn(C(F)(F)F)c4)cn3)n2)cn1` [Example 331, ((1R,5S,6r)-3-(2-((2-(1-(Cyclopropylsulfonyl)-1H-pyrazol-4-yl)pyrimidin-4-yl)amino)-5-((1-(trifluoromethyl)-1H-pyrazol-4-yl)ethynyl)pyridin-4-yl)-3-azabicyclo[3.1.0]hexan-6-yl)methanol]: the IC50 against EGFR Del19/T790M/C797S (setting [1]) stood at 10.3 nM; on EGFR Del19/T790M/C797S (setting [10]), 6.1 nM; at EGFR L858R/T790M/C797S (setting [3]), 13.9 nM; on EGFR L858R/T790M/C797S (setting [11]), 5 nM; against EGFR Del19/C797S (setting [5]), 245 nM; on EGFR Del19/C797S (setting [12]), 87.5 nM. Moreover, the IC50 against EGFR L858R/C797S (setting [7]) was 9130 nM; on EGFR L858R/C797S (setting [13]), 173 nM; on EGFR wildtype (WT) (IC50 WT (nM), 100 μM ATP), over 10000 nM; on EGFR wildtype (WT) (setting [14]), 309 nM.
Take `Cn1ncc(C#Cc2cnc(Nc3ccnc(-c4cnn(S(=O)(=O)C5CC5)c4)n3)cc2N2CCC(CCO)CC2)c1C1CC1` [Example 87, 2-(1-(5-((5-Cyclopropyl-1-methyl-1H-pyrazol-4-yl)ethynyl)-2-((2-(1-(cyclopropylsulfonyl)-1H-pyrazol-4-yl)pyrimidin-4-yl)amino)pyridin-4-yl)piperidin-4-yl)ethan-1-ol]: the IC50 was 2.3 nM at EGFR Del19/T790M/C797S (setting [1]); 6.2 nM against EGFR L858R/T790M/C797S (setting [3]); 26.3 nM on EGFR Del19/C797S (setting [5]); 40.5 nM against EGFR L858R/C797S (setting [7]); over 10000 nM against EGFR wildtype (WT) (IC50 WT (nM), 100 μM ATP).
The like results for `Cn1cc(C#Cc2cnc(Nc3ccnc(-c4cnn(S(=O)(=O)C5CC5)c4)n3)cc2N2CCC(F)(C(F)(F)F)CC2)cn1` [Example 66, 2-(1-(Cyclopropylsulfonyl)-1H-pyrazol-4-yl)-N-(4-(4-fluoro-4-(trifluoromethyl)piperidin-1-yl)-5-((1-methyl-1H-pyrazol-4-yl)ethynyl)pyridin-2-yl)pyrimidin-4-amine] were, in that order, 9 nM, 31.1 nM, 114 nM, 350 nM and over 10000 nM.
Regarding `CS(=O)(=O)N1CCC(C#Cc2cnc(Nc3ccnc(-c4cnn(S(=O)(=O)C5CC5)c4)n3)cc2NC[C@H]2CC[C@H](CO)CC2)CC1` [Example 388, ((1r,4r)-4-(((2-((2-(1-(Cyclopropylsulfonyl)-1H-pyrazol-4-yl)pyrimidin-4-yl)amino)-5-((1-(methylsulfonyl)piperidin-4-yl)ethynyl)pyridin-4-yl)amino)methyl)cyclohexyl)methanol], the IC50 worked out at 6.6 nM against EGFR Del19/T790M/C797S (setting [1]); 2.7 nM on EGFR Del19/T790M/C797S (setting [10]); 19.3 nM on EGFR L858R/T790M/C797S (setting [3]); 2 nM on EGFR L858R/T790M/C797S (setting [11]); 127 nM on EGFR Del19/C797S (setting [5]); 33.3 nM on EGFR Del19/C797S (setting [12]). Besides, the IC50 is 624 nM against EGFR L858R/C797S (setting [7]); 38.6 nM on EGFR L858R/C797S (setting [13]); over 10000 nM against EGFR wildtype (WT) (IC50 WT (nM), 100 μM ATP); 312 nM on EGFR wildtype (WT) (setting [14]).
Take `CC1(CO)CCN(c2cc(Nc3ccnc(-c4cnn(S(=O)(=O)C5CC5)c4)n3)ncc2C#Cc2ccccc2F)CC1` [Example 257, (1-(2-((2-(1-(Cyclopropylsulfonyl)-1H-pyrazol-4-yl)pyrimidin-4-yl)amino)-5-((2-fluorophenyl)ethynyl)pyridin-4-yl)-4-methylpiperidin-4-yl)methanol]: the IC50 on EGFR Del19/T790M/C797S (setting [1]) is 19.4 nM; on EGFR L858R/T790M/C797S (setting [3]), 23.1 nM; against EGFR Del19/C797S (setting [5]), 10.7 nM; at EGFR L858R/C797S (setting [7]), 143 nM; at EGFR wildtype (WT) (IC50 WT (nM), 100 μM ATP) it was over 10000 nM.

For the origin of these results see patent publication US11981658B2, “Substituted aminopyridine compounds as EGFR inhibitors” (YUHAN CORPORATION, priority 2021, dated 2024).
